# In a melting point compilation (Tetko et al.):
row,Compound,melting point [°C]
1,O=C(O)CCNC(=O)Nc1ccccc1,173 to 175
2,CCc1c(Cl)nc(-c2ccccc2)nc1Cl,73 to 75
3,CC(C)C(Br)C(=O)NC1CCS(=O)(=O)C1 (configuration not stated),139 to 141
4,CNCC(=O)N1CCN(C(=O)OC(C)(C)C)CC1,64 to 66
5,NC(=O)NN=Cc1ccccc1O,232 to 234
6,O=C(O)c1cc(Cl)c2c(c1)OCO2,239 to 241
7,O=C(O)c1nn(Cc2ccccc2)c(=O)c2ccccc12,199 to 201
8,Nc1ccc2nc(N3CCCC3)sc2c1,201 to 203
9,NNC(=O)C1CC1,92 to 94
10,COC(=O)NCCC(=O)O,75 to 77
11,O=C(CCn1ccnc1)NC1CCC(C(=O)O)CC1 (configuration not stated),229 to 231
12,Cn1ncc2c1CCCC2O (configuration not stated),104 to 106
13,N#Cc1cc(C(F)(F)F)ccc1S(=O)(=O)Cl,87 to 89
14,CC(C)c1nnc(NC(=O)OCC(F)(F)F)s1,189 to 191
15,O=C1CCSc2c(F)ccc(F)c21,111 to 113
16,Nc1cccc(Cn2cnc3ccccc32)c1,168 to 170
17,CN(C)CCCNC(N)=S,66 to 68
18,NC1(C(=O)O)CCOCC1,268 to 270
19,Cc1ccc(S(=O)(=O)N2CCC(C(=O)O)CC2)c(C)c1,200 to 202
20,CC(Br)C(=O)C12CC3CC(CC(C3)C1)C2 (configuration not stated),86 to 88
21,O=C(O)C=Cc1ccc(OCc2ccncc2)cc1,298 to 300

row,Compound,melting point [°C]
1,O=C1NC(=O)C2(CCOCC2)N1,264 to 266
2,Brc1cnn(-c2ccncc2)c1,125 to 127
3,O=C(O)Cn1nnc2ccccc2c1=O,145 to 150
4,Nc1onc(-c2ccco2)c1-c1ccc2c(c1)OCO2,138 to 140
5,Nc1ccccc1NS(=O)(=O)c1cccs1,188 to 190
6,CN1C(=O)c2ccc(N)cc2C1=O,247 to 249
7,Cc1cc[nH]c(=O)c1C(N)=O,235 to 237
8,CC(C)(C)C(=O)N1CSCC1C(=O)O (configuration not stated),118 to 120
9,Cc1nccn1-c1ccc(N)cc1F,84 to 86
10,O=C(O)c1occc1CSc1ccccc1,114 to 116
11,O=c1[nH]c(CCl)nc2ccsc12,190 to 193
12,CC1(c2ccc(F)cc2)NC(=O)N(CC(=O)O)C1=O (configuration not stated),167 to 169
13,O=C(O)CCc1nccs1,123 to 125
14,Nc1cc(F)ccc1Sc1ncn[nH]1,180 to 182
15,Nc1cc(-c2cccc(Br)c2)ncn1,229 to 231
16,Clc1ccc(CNC2=NCCS2)cc1,106 to 108
17,CC(O)c1ccc(Oc2ccc(Br)cc2)cc1 (configuration not stated),67 to 69
18,COc1ccc(-n2c(S)nnc2-c2ccncc2)cc1,242 to 244
19,NS(=O)(=O)Cc1ccccc1[N+](=O)[O-],131 to 133
20,CC(C)NC(=O)NN,77 to 79
21,CC(C)C(NC(=O)OC(C)(C)C)C(N)=NO (configuration not stated),182 to 184

row,Compound,melting point [°C]
1,CCn1ncc(C(=O)O)c1C(F)(F)F,136 to 138
2,NNc1ncnc2nc[nH]c12,235 to 237
3,O=Cc1ccc(OCc2ccncc2)cc1,112 to 114
4,CC(=O)Nc1ccc(S(=O)(=O)N2CCC(=NO)CC2)cc1,200 to 202
5,O=C(CSc1nnnn1-c1ccccc1)c1ccc[nH]1,182 to 184
6,CCOC(=O)c1c(C)oc2cc3c(C(=O)OCC)c(C)oc3cc12,187 to 189
7,NC(=NO)c1cccc(Cn2cnc3ccccc32)c1,226 to 228
8,Cc1ccccc1CNc1ccc2[nH]c(=O)[nH]c2c1,204 to 206
9,CC(C)(C)OC(=O)NC(C)(C)C(N)=S,169 to 171
10,Nc1ccc(N2CCSCC2)c(C(=O)O)c1,263 to 265
11,CN1CCN(S(=O)(=O)c2ccc(C(=O)NN)cc2)CC1,170 to 172
12,O=C(c1cc(S(=O)(=O)Cl)c[nH]1)N1CCCC1,191 to 193
13,CC1CC1C(N)=O (configuration not stated),93 to 95
14,Clc1cc2ccccc2c(Cl)n1,100 to 102
15,O=C1/C(=C\C=C\c2ccco2)CCC/C1=C\C=C\c1ccco1,162 to 164
16,Cc1nc(-c2ccc(N)cc2)oc1C,150 to 152
17,CC(C)(C)OC(=O)N1CCC(OS(C)(=O)=O)CC1,84 to 86
18,CS(=O)(=O)N1CCCC(CCl)C1 (configuration not stated),64 to 66
19,O=C(O)c1ccc(=O)n(CCOc2ccccc2)n1,138 to 140
20,O=[N+]([O-])c1cnc(Cl)nc1NC1CC1,114 to 116
21,CS(=O)(=O)c1ccc(S(N)(=O)=O)cc1,246 to 248

row,Compound,melting point [°C]
1,CCN1CCN(Cc2ccc(N)cc2)CC1,72 to 74
2,O=C(O)CCS(=O)(=O)c1ccc2c(c1)OCCCO2,109 to 111
3,Cc1nn(C)cc1CCC(=O)O,114 to 116
4,CC(=O)N(c1ccc(F)cc1)c1nc(C=O)cs1,216 to 218
5,CSCCC(NC(=O)c1ccco1)C(=O)O (configuration not stated),185 to 187
6,N#Cc1cccc(Oc2ccc(N)cn2)c1,104 to 106
7,Cc1ccc(N)cc1N1CCCS1(=O)=O,128 to 130
8,O=S(=O)(F)CCn1nnc(-c2ccccc2)n1,97 to 99
9,Nc1cc(-c2cccc(Br)c2)no1,122 to 124
10,Cc1cccc([N+](=O)[O-])c1F,19 to 21
11,Nc1nonc1-c1cccc(Cl)c1,133 to 135
12,CCOc1ccc(Oc2ccc(S(=O)(=O)Cl)cc2)cc1,88 to 90
13,CC1CN(c2ccc(NC(=O)OCC(F)(F)F)cc2F)CC(C)O1 (configuration not stated),130 to 132
14,ClCc1csc(-c2ccccc2Cl)n1,55 to 57
15,Nc1cc(S(=O)(=O)NC2CC2)ccc1Cl,125 to 127
16,Cc1ccnc(Oc2ccc(N)cc2)n1,119 to 121
17,N#CCN(CC#N)C(=O)CCCl,62 to 64
18,NNc1ncc(Cl)cc1Cl,179 to 181
19,NCC(O)c1cccc(F)c1 (configuration not stated),42 to 44
20,NC(=S)N1CCN(c2ccc(Cl)cc2)CC1,176 to 178
21,CCc1cccc(C)c1Nc1nnc(S)s1,155 to 157

# Now from value to compound:
row,melting point [°C],Compound
1,30 to 32,COc1cccc(C=O)c1OC(F)F
2,89 to 91,CCc1noc(-c2ccc(N)c(Cl)c2)n1
3,207 to 209,O=C(O)c1ccc(Cl)c(S(=O)(=O)NCC2CCCO2)c1 (configuration not stated)
4,179 to 181,CN(CC(=O)O)S(=O)(=O)c1ccc(Br)cc1
5,164 to 166,COc1ccc(C)cc1-n1nnnc1S
6,249 to 253,COc1cc(C(=O)O)cc(OC)c1OCC(N)=O
7,144 to 146,COc1cc([N+](=O)[O-])ccc1NC(=O)CCCl
8,64 to 66,O=C(O)Cc1cccc(OCc2ccccc2Cl)c1
9,87 to 89,O=C(O)CCSc1ccc2c(c1)OCCO2
10,95 to 97,O=[N+]([O-])c1cc(Br)ccc1S(=O)(=O)Cl
11,74 to 76,COC(=O)c1cccc(CC(=O)O)c1
12,146 to 148,CCc1ccsc1C(N)=O
13,149 to 151,Cc1cccc2[nH]cc(CC(=O)O)c12
14,172 to 174,COc1cncc(C=CC(=O)O)c1
15,204 to 206,Cn1c(C(=O)O)c(Br)c2ccccc21
16,56 to 58,COC(=O)C1(C)CCc2ccccc2C1=O (configuration not stated)
17,59 to 61,COc1cc(CC#N)ccc1SC(F)(F)F
18,199 to 201,COc1cc(N)ccc1S(=O)(=O)Nc1ccc(Cl)cc1Cl
19,177 to 179,O=C(O)CNS(=O)(=O)c1ccc(Cl)cc1
20,63 to 65,CCOC(=O)c1oc2c(Cl)cccc2c1C

row,melting point [°C],Compound
1,218 to 220,Cc1ccc2[nH]c(C(=O)O)cc2c1
2,32 to 34,COc1ccc(COc2cc(Br)ccc2C(F)(F)F)cc1
3,91 to 93,COc1ccc(OC)c(CNCCO)c1
4,84 to 86,CNC(=O)COc1ccc(C(C)O)cc1 (configuration not stated)
5,141 to 143,CCCSc1ccc(C(=O)O)cc1
6,219 to 221,COc1nc2ccccc2cc1/C=C/C(=O)O
7,85 to 87,COc1ccc(C(=O)CCl)cc1Br
8,75 to 77,CC(NC(=O)CCl)c1ccccc1 (configuration not stated)
9,52 to 54,COc1cc(CN)ccc1OC(C)(C)C
10,213 to 215,O=C(O)CNCc1cccc(Br)c1
11,67 to 69,Cc1ccc(C(=O)C(Cl)c2ccc(C)cc2)cc1 (configuration not stated)
12,38 to 40,NCCNC(=O)c1ccccc1O
13,139 to 141,N#CCC(=O)Nc1cccc(Cl)c1
14,239 to 241,CNC(C(=O)O)c1cc(F)ccc1F (configuration not stated)
15,97 to 99,COC(=O)c1cc(Oc2ccc(F)cc2)c(F)cc1N
16,184 to 186,COc1ccccc1NC(=O)COc1ccc(C(=O)O)cc1OC
17,257 to 259,COc1ccc(/C=C/C(=O)O)cc1S(N)(=O)=O
18,96 to 98,CC(=O)NCCCc1ccc(C(=O)CCl)cc1
19,265 to 267,Cc1ccc(-c2nc(N)sc2CC(=O)O)cc1C
20,84 to 86,COC(=O)CS(=O)c1ccc(Br)cc1 (configuration not stated)

row,melting point [°C],Compound
1,269 to 271,Cc1cc2cc(C(=O)O)oc2cc1C
2,135 to 137,COC(=O)c1ccc(C)c(NC(=O)CCl)c1
3,138 to 140,CC(=O)c1ccc(SCC(=O)O)cc1F
4,149 to 151,O=C(O)c1csc(Cc2cccc(F)c2)n1
5,162 to 164,O=C(O)c1ccccc1OCc1ccc(Cl)cc1Cl
6,207 to 209,COc1ccc(NS(=O)(=O)c2c[nH]c(C(=O)O)c2)cc1Cl
7,114 to 116,COC(=O)CN1Cc2ccccc2C1=O
8,122 to 124,O=C(O)C1CC1c1ccc(Br)cc1 (configuration not stated)
9,135 to 137,CC(=O)c1cccc(NC(=O)OCC(F)(F)F)c1
10,134 to 136,CCC(=O)c1cnccc1N
11,136 to 138,CN(Cc1nn[nH]n1)C(=O)c1ccccc1
12,239 to 241,O=C(O)C1CCCN(C(=O)c2ccc3[nH]ncc3c2)C1 (configuration not stated)
13,128 to 130,CC1=NN(Cc2ccc(Cl)cc2Cl)C(=O)C1
14,291 to 293,O=C(Cc1ccc(Br)cc1)Nc1cccc(C(=O)O)c1
15,139 to 141,COc1cccc(CN2C(=O)NC(=O)C2=O)c1
16,167 to 169,Cc1nnnn1C(Cc1ccccc1)C(=O)O (configuration not stated)
17,92 to 94,COc1ccc2nc(Cl)c(C)cc2c1
18,114 to 116,Cc1ccc(N)cc1C(=O)N(C)C
